IC50, inhibition and Activity data for 3 compounds are collected here from ChEMBL document CHEMBL5325426, “Structure-based discovery of potent USP28 inhibitors derived from Vismodegib” (Eur J Med Chem, 2023).

For test [1], the system named is HCT-116. Nature of the test: Antiproliferative activity against human HCT-116 cells assessed as cell growth inhibition incubated for 3 days by SRB assay. It is filed as functional, cell-based. The following applies: HCT-116, 72 h. A general note: Sulforhodamine B stains cellular protein and so reports cell mass.
Test [2] concerns the target T1, Ubiquitin carboxyl-terminal hydrolase 8 (Homo sapiens) (UniProt P40818).
T1 sequence (whole entry): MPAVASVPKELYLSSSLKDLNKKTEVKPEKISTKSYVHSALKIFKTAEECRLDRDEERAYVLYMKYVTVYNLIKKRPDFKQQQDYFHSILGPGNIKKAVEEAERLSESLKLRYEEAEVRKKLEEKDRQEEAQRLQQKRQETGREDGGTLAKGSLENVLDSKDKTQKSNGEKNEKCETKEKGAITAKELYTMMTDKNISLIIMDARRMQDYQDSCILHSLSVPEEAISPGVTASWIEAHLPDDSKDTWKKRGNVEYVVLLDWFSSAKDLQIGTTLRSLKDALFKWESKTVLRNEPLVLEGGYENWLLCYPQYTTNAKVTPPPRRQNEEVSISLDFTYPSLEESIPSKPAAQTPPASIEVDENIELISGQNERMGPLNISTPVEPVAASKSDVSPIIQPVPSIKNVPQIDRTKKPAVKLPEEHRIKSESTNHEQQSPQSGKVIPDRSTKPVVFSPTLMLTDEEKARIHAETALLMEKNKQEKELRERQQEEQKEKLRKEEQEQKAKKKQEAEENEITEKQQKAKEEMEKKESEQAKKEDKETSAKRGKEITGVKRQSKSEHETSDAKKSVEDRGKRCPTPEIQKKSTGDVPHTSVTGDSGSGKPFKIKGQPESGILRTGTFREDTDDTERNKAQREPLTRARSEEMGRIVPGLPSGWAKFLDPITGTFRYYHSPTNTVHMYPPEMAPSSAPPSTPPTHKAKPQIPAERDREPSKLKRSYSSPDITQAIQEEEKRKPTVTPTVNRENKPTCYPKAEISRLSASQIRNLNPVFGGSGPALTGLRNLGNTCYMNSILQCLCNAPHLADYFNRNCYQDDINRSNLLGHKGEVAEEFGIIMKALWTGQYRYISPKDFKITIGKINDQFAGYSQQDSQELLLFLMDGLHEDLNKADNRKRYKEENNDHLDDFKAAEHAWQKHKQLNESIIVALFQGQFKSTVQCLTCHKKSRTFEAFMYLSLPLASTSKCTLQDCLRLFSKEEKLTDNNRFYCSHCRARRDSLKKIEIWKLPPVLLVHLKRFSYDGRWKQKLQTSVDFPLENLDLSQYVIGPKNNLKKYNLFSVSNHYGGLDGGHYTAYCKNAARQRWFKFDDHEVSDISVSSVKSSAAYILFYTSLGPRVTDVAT
The experiment in a line: Inhibition of USP8 (734 to 1110 residues) (unknown origin) expressed in Escherichia coli BL21 (DE3) using Ub-AMC as substrate at 5 uM by fluorescence based analysis.

For test [3], the target named is Ubiquitin carboxyl-terminal hydrolase 7 (Homo sapiens) (UniProt Q93009). Nature of the test: Inhibition of USP7 (208 to 560 residues) (unknown origin) expressed in Escherichia coli BL21 (DE3) using Ub-AMC as substrate at 5 uM by fluorescence based analysis.
The subject of test [4] is HCT-116. The experiment in a line: Inhibition of colony formation in human HCT-116 cells at 17.5 uM by crystal violet staining assay. It is filed as functional, cell-based.
The target of test [5] is T2, Ubiquitin carboxyl-terminal hydrolase isozyme L5 (Homo sapiens) (UniProt Q9Y5K5).
T2 sequence (whole entry): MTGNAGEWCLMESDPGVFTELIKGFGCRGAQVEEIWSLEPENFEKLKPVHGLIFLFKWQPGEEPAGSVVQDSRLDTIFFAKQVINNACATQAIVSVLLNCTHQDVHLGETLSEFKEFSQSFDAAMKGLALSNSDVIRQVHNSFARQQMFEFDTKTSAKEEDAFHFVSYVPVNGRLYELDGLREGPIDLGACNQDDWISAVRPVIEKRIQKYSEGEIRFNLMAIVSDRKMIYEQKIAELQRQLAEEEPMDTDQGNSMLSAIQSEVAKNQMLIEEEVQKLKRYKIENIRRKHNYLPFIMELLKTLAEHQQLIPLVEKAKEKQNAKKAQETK
Nature of the test: Inhibition of UCHL5 (1 to 228 residues) (unknown origin) expressed in Escherichia coli BL21 (DE3) using Ub-AMC as substrate at 5 uM by fluorescence based analysis.

Test [6] relates to HCT-116. Nature of the test: Antiproliferative activity against human HCT-116 cells assessed as effect on Bcl-2 protein level at 30 to 80 uM incubated for 1 day by western blotting analysis. The following applies: dose 30-80 µM. It is filed as functional, cell-based.
Test [7] concerns LS174T. The experiment in a line: Antiproliferative activity against human LS174T cells assessed as cell growth inhibition at 10 to 30 uM incubated for 3 days in presence of Regorafenib by SRB assay. It is filed as functional, cell-based. To be noted: dose 10-30 µM, time 3.0 day.
The subject of test [8] is LS174T. Nature of the test: Antiproliferative activity against human LS174T cells assessed as cell growth inhibition incubated for 3 days by SRB assay. The following applies: 72 h. It is filed as functional, cell-based.
The target in test [9] is T3, Ubiquitin carboxyl-terminal hydrolase 2 (Homo sapiens) (UniProt O75604).
T3 sequence (whole entry): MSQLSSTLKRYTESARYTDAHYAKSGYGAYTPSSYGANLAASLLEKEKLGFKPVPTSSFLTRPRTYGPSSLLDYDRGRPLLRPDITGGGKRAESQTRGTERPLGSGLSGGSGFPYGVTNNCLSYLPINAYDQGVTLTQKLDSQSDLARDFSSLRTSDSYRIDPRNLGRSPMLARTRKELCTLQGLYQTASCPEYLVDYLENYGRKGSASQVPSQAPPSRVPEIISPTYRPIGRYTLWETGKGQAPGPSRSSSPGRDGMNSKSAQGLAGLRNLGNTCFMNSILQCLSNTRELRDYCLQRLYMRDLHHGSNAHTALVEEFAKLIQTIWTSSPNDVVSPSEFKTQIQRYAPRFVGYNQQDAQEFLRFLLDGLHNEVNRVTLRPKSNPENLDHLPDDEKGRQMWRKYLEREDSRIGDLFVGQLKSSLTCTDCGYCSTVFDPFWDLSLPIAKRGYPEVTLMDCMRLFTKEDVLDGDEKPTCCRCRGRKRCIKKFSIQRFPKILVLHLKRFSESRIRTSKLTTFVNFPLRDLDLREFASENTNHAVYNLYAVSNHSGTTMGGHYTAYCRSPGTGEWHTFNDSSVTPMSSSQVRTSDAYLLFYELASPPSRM
Nature of the test: Inhibition of USP2 (258 to 605 residues) (unknown origin) expressed in Escherichia coli BL21 (DE3) using Ub-AMC as substrate at 5 uM by fluorescence based analysis.

Test [10] deals with LS174T. The experiment in a line: Inhibition of colony formation in human LS174T cells at 15 uM by crystal violet staining assay. It is filed as functional, cell-based.
For test [11], the system named is HCT-116. The experiment in a line: Antiproliferative activity against human HCT-116 cells assessed as effect on Bcl-2 protein level at 30 to 100 uM incubated for 1 day by western blotting analysis. It is filed as functional, cell-based. To be noted: dose 30-100 µM.
The test system of test [12] is LS174T. Nature of the test: Inhibition of colony formation in human LS174T cells at 12.5 uM by crystal violet staining assay. It is filed as functional, cell-based.
Test [13] has as its system HCT-116. Nature of the test: Inhibition of colony formation in human HCT-116 cells at 15 uM by crystal violet staining assay. It is filed as functional, cell-based.
Test [14] has as its system LS174T. Nature of the test: Inhibition of colony formation in human LS174T cells at 10 uM by crystal violet staining assay. It is filed as functional, cell-based.

Activity calls are given as the source filed them. The rule behind the calls is not given here.

Chain of Ubiquitin carboxyl-terminal hydrolase 7 (Homo sapiens) (Q93009 whole entry, looked up, the tested form may be a part): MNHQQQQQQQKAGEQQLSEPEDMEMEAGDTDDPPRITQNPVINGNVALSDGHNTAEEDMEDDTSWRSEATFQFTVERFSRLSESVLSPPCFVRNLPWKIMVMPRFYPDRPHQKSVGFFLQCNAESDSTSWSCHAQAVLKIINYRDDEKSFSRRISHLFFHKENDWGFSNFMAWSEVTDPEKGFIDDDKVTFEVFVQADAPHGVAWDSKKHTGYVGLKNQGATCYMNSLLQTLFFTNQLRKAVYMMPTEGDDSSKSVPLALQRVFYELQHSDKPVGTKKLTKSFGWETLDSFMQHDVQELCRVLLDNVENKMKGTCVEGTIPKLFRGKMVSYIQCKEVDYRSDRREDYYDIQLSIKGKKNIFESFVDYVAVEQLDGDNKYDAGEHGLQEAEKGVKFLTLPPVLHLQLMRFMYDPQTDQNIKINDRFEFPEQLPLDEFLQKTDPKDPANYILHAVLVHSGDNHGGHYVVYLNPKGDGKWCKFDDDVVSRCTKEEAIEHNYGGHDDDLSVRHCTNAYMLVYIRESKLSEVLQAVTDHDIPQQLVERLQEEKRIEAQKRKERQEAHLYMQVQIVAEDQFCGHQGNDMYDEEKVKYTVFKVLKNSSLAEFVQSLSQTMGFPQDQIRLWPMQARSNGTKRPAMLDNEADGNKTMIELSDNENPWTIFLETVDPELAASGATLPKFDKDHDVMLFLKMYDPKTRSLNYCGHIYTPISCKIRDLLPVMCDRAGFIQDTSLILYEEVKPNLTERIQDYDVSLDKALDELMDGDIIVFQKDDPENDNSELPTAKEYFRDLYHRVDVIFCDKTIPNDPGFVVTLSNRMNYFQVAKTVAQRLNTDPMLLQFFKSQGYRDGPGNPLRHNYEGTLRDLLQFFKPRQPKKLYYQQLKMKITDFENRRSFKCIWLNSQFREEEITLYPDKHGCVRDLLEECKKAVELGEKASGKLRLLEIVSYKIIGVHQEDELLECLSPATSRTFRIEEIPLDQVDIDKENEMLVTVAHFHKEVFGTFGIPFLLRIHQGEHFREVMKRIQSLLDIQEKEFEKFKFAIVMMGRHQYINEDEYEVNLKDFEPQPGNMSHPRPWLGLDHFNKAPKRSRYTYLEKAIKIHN

Regarding `CS(=O)(=O)c1ccc(C(=O)Nc2ccc(Cl)c(-c3ccc(C4(N)CC4)cc3)c2)c(Cl)c1`, the IC50 in the test with HCT-116 [1] was 26 µM; with LS174T [8] it was 21.9 µM. In addition, the inhibition entry (in [2]; in test [3]; with HCT-116 [4]; in test [5]; in test [9]; with LS174T [10]) was “Active” throughout. The result in the test with HCT-116 [6] was inactive. Also, the outcome in the test on LS174T [7] was Active.
Regarding `CS(=O)(=O)c1ccc(C(=O)Nc2ccc(Cl)c(-c3ccc4c(c3)CNC4)c2)c(Cl)c1`, the results for the IC50 with HCT-116 [1] and with LS174T [8] were 38.1 µM and 24.3 µM, respectively. For the same compound, the inhibition result (in test [2]; in [3]; in [5]; in the test on LS174T [12]; in the test on HCT-116 [13]; in [9]) was “Active” throughout. In the test with HCT-116 [11], the result was inactive. Besides, in the test with LS174T [7], the result was Active.
For `CS(=O)(=O)c1ccc(C(=O)Nc2ccc(Cl)c(-c3ccc4c(c3)CCNC4)c2)c(Cl)c1`, the figures for the IC50 in the test on HCT-116 [1] and with LS174T [8] were 24.2 µM and 19.9 µM, respectively. Further, the inhibition entry (in test [2]; in test [3]; in [5]; in the test with LS174T [14]; with HCT-116 [13]; in test [9]) was “Active” in each case. Besides, the result in the test on HCT-116 [11] was inactive. Also, the result in the test on LS174T [7] was Active.

For orientation: IC50 means the concentration that inhibits the measured activity by half.
